Assay results as given in patent US12168639B2 (priority 2013, dated 2024).

Legend:
[1] = tested on: Isolated mitochondria from liver; assay type: cell-based, rat
[2] = rat, in vivo
[3] = tested on: whole-cell brain preparations; assay type: cell-based
[4] = tested on: Isolated mitochondria from brain; assay type: cell-based, rat
[5] = tested on: rats fed a high-fat diet and sucrose supplemented (5%) drinking water; conditions: rat, in vivo
[6] = tested on: rats; conditions: rat, in vivo
[7] = tested on: rats; conditions: rat, in vivo; remark: listed apart in the source

With `O=[N+]([O-])c1ccc(O)c([N+](=O)[O-])c1` [DNP, 2,4-dinitrophenol] the “mitochondrial uncoupling (oxygen consumption)” value [1] was “uncoupled both tissues”, the “peak DNP liver concentrations” value [2] was roughly 60 µM and the “peak plasma DNP concentration” value [2] was roughly 120 µM. For the same molecule, the “peak plasma DNP concentrations” value [2] was roughly 380 µM, the “time of peak plasma concentrations of DNP after injection” value [2] was 1 h and the uncoupling [3] was “neither DNP nor DNPME was found to uncouple”. The “mitochondrial uncoupling (oxygen consumption)” value [4] was “uncoupled both tissues”, the “lowest dose effective at lowering liver TAG” value [5] was 5 mg/kg and the “lowest dose where systemic toxicities may be observed” value [6] was 25 mg/kg. The “mortality acutely after IP injection” value [6] was “rapid dose-dependent mortality”, the “rectal temperature after IP injection” value [6] was “large, dose-dependent increase” and the “doses causing increase in rectal temperatures and mortality” value ([6]; ip) was “above 10 mg/kg”. For the same molecule, the “ratio of effective to toxic dose” value [7] was 0.2 and the “toxic threshold of chronic treatment” value [7] was 1 mg/kg.
